Assay [1] has as its target P. falciparum apicoplast DNA polymerase (Pf-apPOL) (Plasmodium falciparum, UniProt Q8ILY1). In words: Fluorescence-based high-throughput DNA polymerase assay (molecular beacon), primary screen and dose-response. It is filed as biochemical. An outline of the steps:
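Single-point screening used 10 µM compound with 20 nM polymerase, 20 nM hairpin substrate and 6 µM dNTPs for 90 min at 25 °C. Confirmatory titrations (2.5–80 µM) followed fluorescence at three times, and IC50 was derived from a fit including a cooperativity term n.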

Assay [2] has as its target Babesia bovis apicoplast DNA polymerase (Bb-apPOL). The assay can be described thus: In vitro DNA polymerase inhibition assay, Bb-apPOL. It is filed as biochemical. The settings on record: Table 2. How it is done: (§1) Codon-optimized, exonuclease-deficient Pf-apPOL was overexpressed in E. coli BL21 (DE3) and purified as described. The protein was dialysed against two, 1-liter changes of 20 mM Tris-HCl (pH 8.0), 400 mM NaCl, and 20% glycerol. Plasmodium bergei and Babesia bovis apPOLs (Pb-apPOL and Bb-apPOL, respectively) were codon-optimized, expressed, and purified as for Pf-apPOL[15]. Bacteriophage T4 DNA polymerase was purified as described. The DNA oligonucleotides used to make the high-throughput substrate were obtained from Integrated DNA Technologies. Deoxynucleotides were purchased from Strategene. All other materials came from Fisher Scientific.
(§2) We tested the ability of the 102 compounds to kill P. falciparum parasites cultured in human red blood cells. Due to the number of compounds, we used a single inhibitor concentration of 20 µM and performed experiments in triplicate. […] These compounds were then tested in a dose-response format against chloroquine resistant P. falciparum parasites (Dd2) and the resulting data were fit to a sigmoidal growth inhibition curve to determine EC50 values (Figure 5, Table 2). […] Finally, to determine if the compounds were killing the parasites solely via apicoplast disruption, the dose-response curves were also performed with 1 mM isopentylpyrophosphate (IPP) in the growth media (Table 2). […] Very little is known regarding mitochondrial DNA replication in P. falciparum; however, signal sequence identification algorithms have predicted that the other bacterial A-family DNA polymerase residing in P. falciparum is targeted to the mitochondria (PF3D7_0625300)[29]. […] We are currently in the process of cloning and expressing this putative mitochondrial DNA polymerase to determine the effect of these compounds on its activity.

Assay [3] concerns chloroquine resistant P. falciparum parasites (strain Dd2). In words: Parasite growth inhibition assay in human red blood cells (flow cytometry, acridine orange). It is filed as cell-based. The following applies: Plasmodium falciparum, Erythrocyte. How it is done: The chloroquine resistant P. falciparum parasites (strain Dd2) were cultured in de-identified, IRB-exempt human red blood cells (RBCs) obtained from the American Red Cross and parasite cultures were maintained as described. Parasitaemia (percentage of total RBCs infected) was measured by flow cytometry on an Attune NxT (ThermoFisher) by nucleic-acid staining of cultured RBCs with phosphate-buffered saline (PBS) containing 0.8 µg ml^−1 acridine orange. We began by determining percent growth inhibition at single compound dose (20 µM) for the 102 non-toxic compounds. […] The experiments were initiated with a starting parasitaemia of ∼1% and parasitaemia was measured 72 and 96 h post compound addition. Growth was normalised to parasite cultures with carrier only (DMSO).
as §2

In assay [4] the target is T1, P. berghei apicoplast DNA polymerase (Pb-apPOL) (Plasmodium berghei, UniProt A0A509ALK1).
T1 sequence (A0A509ALK1 1182-1809): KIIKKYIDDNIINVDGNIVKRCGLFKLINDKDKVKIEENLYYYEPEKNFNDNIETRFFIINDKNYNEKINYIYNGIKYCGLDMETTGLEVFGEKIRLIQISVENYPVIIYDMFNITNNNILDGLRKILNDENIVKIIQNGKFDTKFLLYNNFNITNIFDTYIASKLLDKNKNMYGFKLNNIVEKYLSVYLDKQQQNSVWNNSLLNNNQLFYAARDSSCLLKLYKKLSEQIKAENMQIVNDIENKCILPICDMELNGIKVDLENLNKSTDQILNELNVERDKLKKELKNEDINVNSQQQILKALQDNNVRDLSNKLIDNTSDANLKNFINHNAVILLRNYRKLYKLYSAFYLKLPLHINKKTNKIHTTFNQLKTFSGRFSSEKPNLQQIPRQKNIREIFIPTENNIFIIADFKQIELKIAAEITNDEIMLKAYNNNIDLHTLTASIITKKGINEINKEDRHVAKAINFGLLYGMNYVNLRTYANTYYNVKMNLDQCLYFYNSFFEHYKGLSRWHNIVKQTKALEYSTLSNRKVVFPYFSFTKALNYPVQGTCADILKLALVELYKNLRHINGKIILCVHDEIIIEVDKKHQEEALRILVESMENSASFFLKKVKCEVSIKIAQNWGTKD
In words: In vitro DNA polymerase inhibition assay, Pb-apPOL. It is filed as biochemical. The following applies: Table 2. How it is done:
as §1
The HT assay employs a molecular beacon, a stem-loop DNA template with a Cy3 dye and the Black Hole Quencher on the 3′ and 5′ ends of the DNA, respectively. Pf-apPOL concentration is based on a calculated absorptivity of ε280 = 56750 M^−1 cm^−1. Reactions were carried out at 25 °C, using Corning 3575 […] (well-volume, 20 µL). Assays testing for compound inhibition composed of reaction buffer (pH 7.9 in 50 mM potassium acetate, 20 mM Tris-acetate and 10 mM magnesium acetate), Pf-apPOL (20 nM), DNA substrate (20 nM), dNTPs (6 µM), and compound (10 µM in DMSO). The DNA and nucleotide substrates (dNTPs) were at concentrations of 20 nM and 6 µM, respectively, in the assay. Pf-apPOL was incubated in the reaction buffer with dNTPs and the compound of interest (10 µM, in the assay) at 25 °C for 10 min. The DNA substrate was then added and the reaction was allowed to proceed for 90 min at 25 °C.
In the above, Min is the average of fluorescence emission of the negative controls (substrate only), Max the average fluorescence emission from the positive controls (enzyme + substrate), and Test the emission from the assays in the presence of compounds (enzyme + compound + substrates). Dose-response confirmation assays were performed under similar conditions as the primary screen, but monitoring fluorescence at 10, 90, and 180 min. Tested concentrations of compounds were 2.5, 10, 20, 40, and 80 µM. The IC50 of each compound was determined using Equation (2): (2) […] Vmax/(1+ (I/IC50)^n)
We tested the ability of the 102 compounds to kill P. falciparum parasites cultured in human red blood cells. Due to the number of compounds, we used a single inhibitor concentration of 20 µM and performed experiments in triplicate. These single-dose assays identified 9 compounds that inhibited parasite growth by more than 50%. These compounds were then tested in a dose-response format against chloroquine resistant P. falciparum parasites (Dd2) and the resulting data were fit to a sigmoidal growth inhibition curve to determine EC50 values (Figure 5, Table 2). […] Inhibition of Pb-apPOL is a desired feature because it is likely that future in vivo studies will be performed in the mouse model for Malaria. […] The in vitro polymerase assays identified 5 compounds that were potent inhibitors of all three apicoplast polymerases and a single compound that inhibited Pf-apPOL and Bb-apPOL but not Pb-apPOL (Table 2). Finally, to determine if the compounds were killing the parasites solely via apicoplast disruption, the dose-response curves were also performed with 1 mM isopentylpyrophosphate (IPP) in the growth media (Table 2). […] At this time, it is unclear what the non-apicoplast target(s) may be. One intriguing possibility is that these compounds may be targeting both the apicoplast and the mitochondrial DNA polymerases. […]

The mark [5] stands for this setting: read-out: IC50 Pf-apPOL, Table 2.
[6] abbreviates: supplemental file 2, sheet IC50 nontoxic compounds, Pf-apPOL.

Like-named read-outs stand apart in the source and are kept apart here.

Chain of P. falciparum apicoplast DNA polymerase (Pf-apPOL) (Q8ILY1 entry or part of it): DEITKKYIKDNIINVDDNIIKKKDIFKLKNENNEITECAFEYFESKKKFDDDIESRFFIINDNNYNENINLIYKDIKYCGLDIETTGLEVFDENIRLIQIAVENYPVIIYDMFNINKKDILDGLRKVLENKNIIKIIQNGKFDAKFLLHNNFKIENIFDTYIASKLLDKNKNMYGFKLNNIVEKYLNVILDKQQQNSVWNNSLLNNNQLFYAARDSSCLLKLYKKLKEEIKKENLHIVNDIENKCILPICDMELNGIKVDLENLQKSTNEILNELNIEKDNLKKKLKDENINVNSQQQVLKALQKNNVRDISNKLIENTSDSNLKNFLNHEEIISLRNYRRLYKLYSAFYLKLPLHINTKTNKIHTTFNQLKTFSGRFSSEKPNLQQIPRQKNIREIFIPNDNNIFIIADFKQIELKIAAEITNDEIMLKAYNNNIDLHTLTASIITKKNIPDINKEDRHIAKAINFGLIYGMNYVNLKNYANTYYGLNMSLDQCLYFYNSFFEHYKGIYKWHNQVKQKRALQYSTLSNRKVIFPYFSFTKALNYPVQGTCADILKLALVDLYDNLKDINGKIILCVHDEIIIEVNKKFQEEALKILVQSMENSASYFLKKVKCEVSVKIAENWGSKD

Turning to `O=[N+]([O-])/C=C/c1ccc(-c2ccc(Br)cc2)o1` [Molecule 31], the IC50 in assay [1] (setting [5]) amounted to 15 ± 1 µM; in assay [1] (setting [6]) it was 15.8 µM; in assay [2], 15 ± 5 µM. In addition, the EC50 stood at 8.9 ± 0.5 µM in assay [3] (Dd2 parasites in human RBCs, dose-response, no IPP, read-out: EC50) and 8.7 ± 0.6 µM in assay [3] (Dd2 parasites, 1 mM isopentylpyrophosphate (IPP) in the growth media, read-out: EC50 + IPP).

With `O=[N+]([O-])c1ccc(/C=C/c2ccc3ccccc3n2)o1` [Molecule 21], the IC50 in assay [1] (setting [5]) stood at 8 ± 1 µM; in assay [1] (setting [6]), 8.41 µM; in assay [4], 9.7 ± 1.6 µM.

(Values after paper PMC9090415, “Discovery of small molecule inhibitors of Plasmodium falciparum apicoplast DNA polymerase” (Journal of Enzyme Inhibition and Medicinal Chemistry, 2022).)
